Values quoted from earlier work in US7091196B2, “Bifunctional heterocyclic compounds and methods of making and using same” (Rib-X Pharmaceuticals, Inc., priority 2002, dated 2006).

Conditions: literature report, Gregory et al. (1989) J. Med. Chem. 32: 1673-1681

Structure (SMILES): COC(=O)c1nnn(C[C@@H]2CN(c3ccc(C(C)=O)cc3)C(=O)O2)c1C(=O)OC [Compound 6]
- activity as an antibacterial agent: inactive
